Article PMC4546618, “Casitas B-Lineage Lymphoma RING Domain Inhibitors Protect Mice against High-Fat Diet-Induced Obesity and Insulin Resistance” (PLoS ONE, 2015)
*1 amine or outer side, *2 acyl side, *3 side chain or, on linkers, in order; H or OH if unused. Where a SMILES comes first, the peptide text is derived from it. [ ]: non-standard residue; d: D form. Phe(4-NO2) = N[C@@H](Cc1ccc([N+](=O)[O-])cc1)C(=O)O; Phe(4-N3) = [N-]=[N+]=Nc1ccc(C[C@H](N)C(=O)O)cc1; X2 = CC(=O)CN(CCCC[C@H](N[*:1])C(=O)[*:2])C(C)=O; Phe(4-CF3) = N[C@@H](Cc1ccc(C(F)(F)F)cc1)C(=O)O; Pro(trans-4-F) = O=C(O)[C@@H]1C[C@@H](F)CN1; X1 = CC(=O)N(O)CCCC[C@H](N[*:1])C(=O)[*:2]; Phe(4-NH2) = Nc1ccc(C[C@H](N)C(=O)O)cc1; Phe(3-F) = N[C@@H](Cc1cccc(F)c1)C(=O)O; Phe(3-Me) = Cc1cccc(C[C@H](N)C(=O)O)c1; Phe(4-F) = N[C@@H](Cc1ccc(F)cc1)C(=O)O; Phe(4-Me) = Cc1ccc(C[C@H](N)C(=O)O)cc1; Phe(2-F) = N[C@@H](Cc1ccccc1F)C(=O)O; Phe(2-Me) = Cc1ccccc1C[C@H](N)C(=O)O; Cha = N[C@@H](CC1CCCCC1)C(=O)O; ΔPro = O=C(O)[C@@H]1C=CCN1; Pip = O=C(O)[C@@H]1CCCCN1; Thz = O=C(O)[C@@H]1CSCN1; Aze = O=C(O)[C@@H]1CCN1

Target: T1, Cbl (RING) protein (Homo sapiens, UniProt P22681)
T1 construct: including the linker and RING domain (codon 358–457); GST (Glutathione S-Transferase); made in house
T1 sequence (P22681 358-457): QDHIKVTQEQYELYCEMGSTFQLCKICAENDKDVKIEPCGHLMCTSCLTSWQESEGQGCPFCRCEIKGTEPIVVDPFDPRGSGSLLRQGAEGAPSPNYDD
Assay: Fluorescence polarization (FP) assay, competition with FITC-βA-PFKPP-NH2 probe
Type: binding
Conditions: probe FITC-βA-PFKPP-NH2 100 nmol/L, Cbl (RING) protein 3 μmol/L, PBS pH 7.4
Protocol: Peptides and peptide mimetics were purchased from MitenChem (China) with a purity ≥ 98%. Concentrations values of reconstituted peptides were determined by amino acid analysis at the protein core facility (Chengdu Medical College). The recombinant Cbl protein was produced by the Chengdu Medical College Protein Core Facility and was described previously. The c-Cbl (RING) protein, including the linker and RING domain (codon 358–457), was tagged with Glutathione S-Transferase (GST) and purified with GSH-Sepharose (Shanghai Biopharma).
The FP assay was developed and validated previously. Briefly, fluorescein-labeled probe (FITC-βA-PFKPP-NH2, 100 nmol/L) and Cbl (RING) protein (3 μmol/L) were mixed and diluted to the final concentration using 0.01% Triton X-100 in PBS (pH = 7.4). Then, 19 μl of this master mix was loaded to each reaction well. The peptides or peptide mimetics were then loaded to the designated wells (1 μl, 10 μmol/L– 0.078 μmol/L, half-fold dilutions). The total fluorescence and polarization values were measured at an excitation wavelength of 485 nm and an emission wavelength of 538 nm using a ZS-2 plate reader. The data was fitted, and the ΔmP, Kd, and Ki values were estimated, using SigmaPlot 11.0.

Ki [µM] | SMILES
12.5 ± 0.9 | CC(=O)N1CCC[C@H]1C(=O)N[C@@H](Cc1cccc(F)c1)C(=O)N[C@@H](CCCCN)C(=O)N1CCC[C@H]1C(=O)N1CCC[C@@H]1C(N)=O [Peptide 17, Ac-P(h)KP(o)-NH2] (Ac-P[Phe(3-F)]KP[dP]-NH2)
> 250 | CC(=O)N1CCC[C@H]1C(=O)N[C@@H](Cc1cccc(F)c1)C(=O)N[C@@H](CCCCN)C(=O)N1CCC[C@H]1C(=O)N1CC[C@H]1C(N)=O [Peptide 19, Ac-P(h)KP(q)-NH2] (Ac-P[Phe(3-F)]KP[Aze]-NH2)
3.7 ± 0.4 | CC(=O)N1CCC[C@H]1C(=O)N[C@@H](Cc1cccc(F)c1)C(=O)N[C@@H](CCCCN)C(=O)N1CCC[C@H]1C(=O)N1CSC[C@H]1C(N)=O [Peptide 20, Ac-P(h)KP(r)-NH2] (Ac-P[Phe(3-F)]KP[Thz]-NH2)
90.9 ± 0.7 | CC(=O)N1CCC[C@H]1C(=O)N[C@@H](Cc1cccc(F)c1)C(=O)N[C@@H](CCCCN)C(=O)N1CCC[C@H]1C(=O)N1CCCC[C@H]1C(N)=O [Peptide 21, Ac-P(h)KP(s)-NH2] (Ac-P[Phe(3-F)]KP[Pip]-NH2)
31.2 ± 0.4 | CC(=O)N1CCC[C@H]1C(=O)N[C@@H](Cc1cccc(F)c1)C(=O)N[C@@H](CCCCN)C(=O)N1CCC[C@H]1C(=O)N1C[C@H](F)C[C@H]1C(N)=O [Peptide 22, Ac-P(h)KP(t)-NH2] (Ac-P[Phe(3-F)]KP[Pro(trans-4-F)]-NH2)
3.5 ± 0.4 | CC(=O)N1CCC[C@H]1C(=O)N[C@@H](Cc1cccc(F)c1)C(=O)N[C@@H](CCCCN)C(=O)N1CCC[C@@H]1C(=O)N1CCC[C@H]1C(N)=O [Peptide 24, Ac-P(h)K(o)P-NH2] (Ac-P[Phe(3-F)]K[dP]P-NH2)
> 250 | CC(=O)N1CCC[C@H]1C(=O)N[C@@H](Cc1cccc(F)c1)C(=O)N[C@@H](CCCCN)C(=O)N1CC=C[C@H]1C(=O)N1CCC[C@H]1C(N)=O [Peptide 25, Ac-P(h)K(p)P-NH2] (Ac-P[Phe(3-F)]K[ΔPro]P-NH2)
> 250 | CC(=O)N1CCC[C@H]1C(=O)N[C@@H](Cc1cccc(F)c1)C(=O)N[C@@H](CCCCN)C(=O)N1CC[C@H]1C(=O)N1CCC[C@H]1C(N)=O [Peptide 26, Ac-P(h)K(q)P-NH2] (Ac-P[Phe(3-F)]K[Aze]P-NH2)
136 ± 11.2 | CC(=O)N1CCC[C@H]1C(=O)N[C@@H](Cc1cccc(F)c1)C(=O)N[C@@H](CCCCN)C(=O)N1CCCC[C@H]1C(=O)N1CCC[C@H]1C(N)=O [Peptide 28, Ac-P(h)K(s)P-NH2] (Ac-P[Phe(3-F)]K[Pip]P-NH2)
24.6 ± 5.8 | CC(=O)N1CCC[C@H]1C(=O)N[C@@H](Cc1cccc(F)c1)C(=O)N[C@@H](CCCCN)C(=O)N1C[C@H](F)C[C@H]1C(=O)N1CCC[C@H]1C(N)=O [Peptide 29, Ac-P(h)K(t)P-NH2] (Ac-P[Phe(3-F)]K[Pro(trans-4-F)]P-NH2)
4.5 ± 0.5 | CC(=O)N1CCC[C@@H]1C(=O)N[C@@H](Cc1cccc(F)c1)C(=O)N[C@@H](CCCCN)C(=O)N1CCC[C@H]1C(=O)N1CCC[C@H]1C(N)=O [Peptide 31, Ac-(o) (h)KPP-NH2] (Ac-[dP][Phe(3-F)]KPP-NH2)
> 250 | CC(=O)N1CC=C[C@H]1C(=O)N[C@@H](Cc1cccc(F)c1)C(=O)N[C@@H](CCCCN)C(=O)N1CCC[C@H]1C(=O)N1CCC[C@H]1C(N)=O [Peptide 32, Ac-(p) (h)KPP-NH2] (Ac-[ΔPro][Phe(3-F)]KPP-NH2)
> 250 | CC(=O)N1CC[C@H]1C(=O)N[C@@H](Cc1cccc(F)c1)C(=O)N[C@@H](CCCCN)C(=O)N1CCC[C@H]1C(=O)N1CCC[C@H]1C(N)=O [Peptide 33, Ac-(q) (h)KPP-NH2] (Ac-[Aze][Phe(3-F)]KPP-NH2)
122 ± 9.8 | CC(=O)N1CCCC[C@H]1C(=O)N[C@@H](Cc1cccc(F)c1)C(=O)N[C@@H](CCCCN)C(=O)N1CCC[C@H]1C(=O)N1CCC[C@H]1C(N)=O [Peptide 35, Ac-(s) (h)KPP-NH2] (Ac-[Pip][Phe(3-F)]KPP-NH2)
14.5 ± 2.9 | CC(=O)N1C[C@H](F)C[C@H]1C(=O)N[C@@H](Cc1cccc(F)c1)C(=O)N[C@@H](CCCCN)C(=O)N1CCC[C@H]1C(=O)N1CCC[C@H]1C(N)=O [Peptide 36, Ac-(t) (h)KPP-NH2] (Ac-[Pro(trans-4-F)][Phe(3-F)]KPP-NH2)
21.6 ± 2.6 | CC(=O)N(O)CCCC[C@H](NC(=O)[C@H](Cc1cccc(F)c1)NC(=O)[C@@H]1CSCN1C(C)=O)C(=O)N1CCC[C@H]1C(=O)N1CCC[C@H]1C(N)=O [Peptide 38, Ac-(r) (h) (v)PP-NH2] (Ac-[Thz][Phe(3-F)][X1]PP-NH2)
28.3 ± 2.8 | CC(=O)CN(CCCC[C@H](NC(=O)[C@H](Cc1cccc(F)c1)NC(=O)[C@@H]1CSCN1C(C)=O)C(=O)N1CCC[C@H]1C(=O)N1CCC[C@H]1C(N)=O)C(C)=O [Peptide 39, Ac-(r) (h) (w)PP-NH2] (Ac-[Thz][Phe(3-F)][X2]PP-NH2)

Second part, the compound before the results:

SMILES | Ki [µM]
CC(=O)N1CCC[C@H]1C(=O)N[C@@H](CC1CCCCC1)C(=O)N[C@@H](CCCCN)C(=O)N1CCC[C@H]1C(=O)N1CCC[C@H]1C(N)=O [Peptide 5, Ac-P(c)KPP-NH2] (Ac-P[Cha]KPP-NH2) | 125 ± 12.6
CC(=O)N1CCC[C@H]1C(=O)N[C@@H](Cc1ccccc1C)C(=O)N[C@@H](CCCCN)C(=O)N1CCC[C@H]1C(=O)N1CCC[C@H]1C(N)=O [Peptide 6, Ac-P(d)KPP-NH2] (Ac-P[Phe(2-Me)]KPP-NH2) | 10.2 ± 1.5
CC(=O)N1CCC[C@H]1C(=O)N[C@@H](Cc1cccc(C)c1)C(=O)N[C@@H](CCCCN)C(=O)N1CCC[C@H]1C(=O)N1CCC[C@H]1C(N)=O [Peptide 7, Ac-P(e)KPP-NH2] (Ac-P[Phe(3-Me)]KPP-NH2) | 4.5 ± 1
CC(=O)N1CCC[C@H]1C(=O)N[C@@H](Cc1ccc(C)cc1)C(=O)N[C@@H](CCCCN)C(=O)N1CCC[C@H]1C(=O)N1CCC[C@H]1C(N)=O [Peptide 8, Ac-P(f)KPP-NH2] (Ac-P[Phe(4-Me)]KPP-NH2) | 5.4 ± 2.2
CC(=O)N1CCC[C@H]1C(=O)N[C@@H](Cc1ccccc1F)C(=O)N[C@@H](CCCCN)C(=O)N1CCC[C@H]1C(=O)N1CCC[C@H]1C(N)=O [Peptide 9, Ac-P(g)KPP-NH2] (Ac-P[Phe(2-F)]KPP-NH2) | 3.5 ± 0.6
CC(=O)N1CCC[C@H]1C(=O)N[C@@H](Cc1ccc(F)cc1)C(=O)N[C@@H](CCCCN)C(=O)N1CCC[C@H]1C(=O)N1CCC[C@H]1C(N)=O [Peptide 11, Ac-P(i)KPP-NH2] (Ac-P[Phe(4-F)]KPP-NH2) | 2.4 ± 0.5
CC(=O)N1CCC[C@H]1C(=O)N[C@@H](Cc1ccc(N)cc1)C(=O)N[C@@H](CCCCN)C(=O)N1CCC[C@H]1C(=O)N1CCC[C@H]1C(N)=O [Peptide 12, Ac-P(j)KPP-NH2] (Ac-P[Phe(4-NH2)]KPP-NH2) | 4.5 ± 0.8
CC(=O)N1CCC[C@H]1C(=O)N[C@@H](Cc1ccc([N+](=O)[O-])cc1)C(=O)N[C@@H](CCCCN)C(=O)N1CCC[C@H]1C(=O)N1CCC[C@H]1C(N)=O [Peptide 13, Ac-P(k)KPP-NH2] (Ac-P[Phe(4-NO2)]KPP-NH2) | 4.2 ± 0.4
CC(=O)N1CCC[C@H]1C(=O)N[C@@H](Cc1ccc(C(F)(F)F)cc1)C(=O)N[C@@H](CCCCN)C(=O)N1CCC[C@H]1C(=O)N1CCC[C@H]1C(N)=O [Peptide 14, Ac-P(l)KPP-NH2] (Ac-P[Phe(4-CF3)]KPP-NH2) | 25.4 ± 0.7
CC(=O)N1CCC[C@H]1C(=O)N[C@@H](Cc1ccc(N=[N+]=[N-])cc1)C(=O)N[C@@H](CCCCN)C(=O)N1CCC[C@H]1C(=O)N1CCC[C@H]1C(N)=O [Peptide 15, Ac-P(m)KPP-NH2] (Ac-P[Phe(4-N3)]KPP-NH2) | 8.4 ± 0.4
CC(=O)N1CCC[C@H]1C(=O)N[C@H](Cc1ccccc1)C(=O)N[C@@H](CCCCN)C(=O)N1CCC[C@H]1C(=O)N1CCC[C@H]1C(N)=O [Peptide 16, Ac-P(n)KPP-NH2] (Ac-P[dF]KPP-NH2) | 15.4 ± 0.4
CC(=O)N1CCC[C@H]1C(=O)N[C@@H](Cc1cccc(F)c1)C(=O)N[C@@H](CCCCN)C(=O)N1CCC[C@H]1C(=O)N1CC=C[C@H]1C(N)=O [Peptide 18, Ac-P(h)KP(p)-NH2] (Ac-P[Phe(3-F)]KP[ΔPro]-NH2) | > 250
CC(=O)N[C@@H](CCCCN(O)C(C)=O)C(=O)N1CCC[C@H]1C(=O)N[C@@H](C)C(=O)N[C@H](C(=O)N[C@@H](CCCCN)C(N)=O)[C@@H](C)O [Peptide 40, Ac-(v)PATK-NH2] (Ac-[X1]PATK-NH2) | 51.8 ± 0.8
CC(=O)CN(CCCC[C@H](NC(C)=O)C(=O)N1CCC[C@H]1C(=O)N[C@@H](C)C(=O)N[C@H](C(=O)N[C@@H](CCCCN)C(N)=O)[C@@H](C)O)C(C)=O [Peptide 41, Ac-(w)PATK-NH2] (Ac-[X2]PATK-NH2) | 96.2 ± 12.6
CC(=O)N[C@@H](CCCCN)C(=O)N1CCC[C@H]1C(=O)N[C@@H](C)C(=O)N[C@H](C(=O)N[C@@H](CCCCN(O)C(C)=O)C(N)=O)[C@@H](C)O [Peptide 42, Ac-KPAT(v)-NH2] (Ac-KPAT[X1]-NH2) | 59.8 ± 6.5
CC(=O)CN(CCCC[C@H](NC(=O)[C@@H](NC(=O)[C@H](C)NC(=O)[C@@H]1CCCN1C(=O)[C@H](CCCCN)NC(C)=O)[C@@H](C)O)C(N)=O)C(C)=O [Peptide 43, Ac-KPAT(w)-NH2] (Ac-KPAT[X2]-NH2) | 72.6 ± 9.5
CC(=O)CN(CCCC[C@H](NC(=O)[C@@H](NC(=O)[C@H](C)NC(=O)[C@@H]1CCCN1C(=O)[C@H](CCCCN(O)C(C)=O)NC(C)=O)[C@@H](C)O)C(N)=O)C(C)=O [Peptide 44, Ac-(v)PAT(w)-NH2] | 126 ± 22.6
